In PubChem BioAssay (NCI):
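1) Cells in 96-well plates. 2) Compound, 48 h, 5 concentrations. 3) Linear interpolation between surrounding doses. 4) Unreached endpoint = highest concentration. TGI denotes the concentration required for complete inhibition of growth.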

What was measured:
Test in all cases: NCI-60 cell line screen, 48 h
U251 CNS = tested on: U251 CNS
SF-295 CNS = tested on: SF-295 CNS
UO-31 renal = tested on: UO-31 renal
SF-539 CNS = tested on: SF-539 CNS
T-47D breast = tested on: T-47D breast
DU-145 prostate = tested on: DU-145 prostate
SK-MEL-5 melanoma = tested on: SK-MEL-5 melanoma
HCT-116 colon = tested on: HCT-116 colon
MDA-N = tested on: MDA-N
MCF7 breast = tested on: MCF7 breast
M14 melanoma = tested on: M14 melanoma
COLO 205 colon = tested on: COLO 205 colon
BT-549 breast = tested on: BT-549 breast
SK-MEL-2 melanoma = tested on: SK-MEL-2 melanoma
RXF 393 renal = tested on: RXF 393 renal
SW-620 colon = tested on: SW-620 colon
RPMI-8226 leukemia = tested on: RPMI-8226 leukemia
IGROV1 ovarian = tested on: IGROV1 ovarian
A498 renal = tested on: A498 renal

Row | Structure (SMILES) | TGI (U251 CNS) | TGI (SF-295 CNS) | TGI (UO-31 renal) | TGI (SF-539 CNS) | TGI (T-47D breast) | TGI (DU-145 prostate) | TGI (SK-MEL-5 melanoma) | TGI (HCT-116 colon) | TGI (MDA-N) | TGI (MCF7 breast) | TGI (M14 melanoma) | TGI (COLO 205 colon) | TGI (BT-549 breast) | TGI (SK-MEL-2 melanoma) | TGI (RXF 393 renal) | TGI (SW-620 colon) | TGI (RPMI-8226 leukemia) | TGI (IGROV1 ovarian) | TGI (A498 renal)
1 | CC1=C(C(=O)NNC(=O)c2ccccc2O)CC(C(=O)NNC(=O)c2ccccc2O)=C(C)N1 | > 100 µM | > 100 µM | 18.8 µM | 41.8 µM | > 32.6 µM | > 93.5 µM | > 100 µM | > 51.5 µM | > 100 µM | > 48.5 µM | > 76 µM | > 86.8 µM | > 100 µM | > 100 µM | > 100 µM | > 100 µM | > 100 µM | > 35.4 µM | –
2 | O=C(O)c1ccc(Nc2nc3ccc(C(F)(F)F)cc3nc2-c2ccccc2)cc1 | > 100 µM | > 100 µM | 55.1 µM | 90.8 µM | 52.8 µM | > 10 µM | > 100 µM | > 100 µM | > 100 µM | > 100 µM | > 100 µM | – | – | – | > 100 µM | > 100 µM | > 100 µM | > 100 µM | –
3 | O=C(O)c1ccc(Nc2nc3ccc(C(F)(F)F)cc3nc2C(=O)O)cc1 | > 100 µM | > 100 µM | > 100 µM | > 100 µM | > 100 µM | > 100 µM | > 100 µM | > 100 µM | > 100 µM | > 100 µM | > 100 µM | > 100 µM | – | > 100 µM | > 100 µM | > 100 µM | > 100 µM | > 100 µM | –
4 | N#Cc1c2c(c(Nc3cccc(C(F)(F)F)c3)n3c1nc1ccccc13)CCCC2 | 23.7 µM | > 100 µM | – | 31 µM | > 100 µM | > 100 µM | > 100 µM | > 100 µM | 56.7 µM | – | – | > 100 µM | 95.3 µM | – | 86.2 µM | > 100 µM | > 100 µM | – | 94.9 µM
5 | CC(=O)c1sc2c(c1OC(=O)c1ccccc1)c(=O)n(-c1ccccc1)c(=S)n2-c1ccccc1 | 23.7 µM | 16.7 µM | 12.6 µM | 5.65 µM | > 50.3 µM | 79 µM | 18.4 µM | 34.2 µM | 27.2 µM | 99.8 µM | 14.3 µM | 30.1 µM | – | 7.88 µM | 7.21 µM | > 82.6 µM | 7.32 µM | 54.5 µM | 7.87 µM
6 | CCOC(OCC)[C@@H]1C[C@@H]2N(O[C@H](OC3CCCC3(c3ccccc3)c3ccccc3)[C@H](OC(C)=O)[C@@]2(CC)Cc2ccc(OC)c(OC)c2)O1 (some centres not stated) | > 100 µM | > 100 µM | > 100 µM | > 100 µM | > 100 µM | > 100 µM | > 100 µM | > 100 µM | > 100 µM | > 100 µM | > 100 µM | > 100 µM | > 100 µM | > 100 µM | > 100 µM | > 100 µM | – | > 100 µM | –
7 | CCOC(=O)CN1C(=O)c2c(NC(=O)C(=O)O)cccc2S1(=O)=O | > 100 µM | > 100 µM | > 100 µM | – | > 100 µM | > 100 µM | > 100 µM | > 100 µM | > 100 µM | > 100 µM | > 100 µM | > 100 µM | > 100 µM | > 100 µM | > 100 µM | > 100 µM | > 100 µM | > 100 µM | > 100 µM
